For data set [1] the following is noted: Liquid; for mass density: 293.15 K, 101.33 kPa, Pycnometric method; for vapor or sublimation pressure: Ebulliometric method (Recirculating still).
The nature of data set [2]: refractive index (Na D-line) (dimensionless). The settings on record: 298.15 K; 101.33 kPa; Liquid; Standard Abbe refractometry.

The structures appear in SMILES notation. ± gives the expanded uncertainty stated by the source.

In the case of `CCCOCOCC` [1-(ethoxymethoxy)propane], the mass density in data set [1] is reported as 831.1 ± 0.7 kg/m3. The “vapor or sublimation pressure” value in data set [1] (386.53 K) worked out at 101.33 ± 1 kPa. Also, the refractive index in data set [2] turned out to be 1.3818 ± 0.0005.

In the case of `CCCOCOC` [1-(methoxymethoxy)propane], in data set [1], the mass density is given as 841.2 ± 0.7 kg/m3. Also, the “vapor or sublimation pressure” value in data set [1] (366.13 K) is given as 101.33 ± 1 kPa. Also, the refractive index in data set [2] is given as 1.3757 ± 0.0005.

Take `COCOCOC` [2,4,6-trioxaheptane]: in data set [1], the mass density amounted to 958 ± 0.8 kg/m3. The “vapor or sublimation pressure” value in data set [1] (378 K) is listed as 101.33 ± 1 kPa. Besides, the refractive index in data set [2] came to 1.379 ± 0.0005.

`CCCCO` [butan-1-ol]: the mass density in data set [1] was 809.5 ± 0.7 kg/m3. Moreover, the “vapor or sublimation pressure” value in data set [1] (390.92 K) stood at 101.33 ± 1 kPa. The refractive index in data set [2] turned out to be 1.3971 ± 0.0005.

With `CCO` [ethanol], the mass density in data set [1] stood at 789.2 ± 0.7 kg/m3. For the same compound, in data set [1] (351.51 K), the “vapor or sublimation pressure” value is on record as 101.33 ± 1 kPa. For the same compound, the refractive index in data set [2] is 1.3595 ± 0.0005.

With `CCCO` [propan-1-ol], in data set [1], the mass density was found to be 803.6 ± 0.7 kg/m3. Besides, the “vapor or sublimation pressure” value in data set [1] (370.42 K) worked out at 101.33 ± 1 kPa. Besides, the refractive index in data set [2] is reported as 1.3835 ± 0.0005.

The values are drawn from the NIST ThermoML archive (doi:10.1021/acs.jced.7b00740).
